Measured values: patent US11439648B2, “Use of topical BRAF inhibitor compositions for treatment of radiation dermatitis” (Lutris Pharma Ltd., priority 2019, dated 2022)

test system: MIA PaCa2 K-ras cells; assay: Proliferation of MIA PaCa cells (ATPlite proliferation kit); type: cell-based; settings: after 72 hours; concentration giving the highest proliferation (range 0.002 μM to 10 μM); starvation medium; average of 6 wells; presented as percent of over-proliferation vs DMSO control
Method: In this example, effect of the compounds on proliferation of MIA PaCa2 K-ras cells was studied. It was expected that the compounds that induce ERK phosphorylation would also induce proliferation of Mia PaCa cells.
The cells were seeded in starvation medium at 5000 cells/well in a 96 wells plate for 24 hours at 37° C., 5% CO2. The tested compounds were added at different concentrations ranging from 0.002 μM to 10 μM. The controls were untreated cells and vehicle of 0.1% DMSO. The cells were incubated at 37° C., 5% CO2, for 72 hours and then the proliferation was tested using the ATPlite proliferation kit (Perkin-Elmer). Each result represents an average of 6 wells. The results are presented as the percent of over-proliferation compared to the DMSO control.
The concentration of the compounds that provided the highest proliferation was compared to DMSO. DMSO was calculated as 100%.

Row | SMILES | % proliferation compared to the DMSO control [%]
1 | Cc1ccc2c(Nc3ccc(Cl)cc3)nccc2c1Nc1ncccc1-c1ncnc2[nH]cnc12 [C-1] | 30
2 | Cc1ccc2c(Nc3cccc(OC(F)(F)F)c3)nccc2c1Nc1ncccc1-c1ncnc2[nH]cnc12 [LUT014] | 116
3 | CCCS(=O)(=O)Nc1ccc(F)c(C(=O)c2c[nH]c3ncc(-c4ccc(Cl)cc4)cc23)c1F [Vemurafenib] | 12
